# Data published in PubChem BioAssay (NCI).
#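 Dose response: 5 concentrations. Exposure: 48 h. Format: 96-well plates. Endpoint: linear interpolation; highest concentration if not reached. The concentration for full growth arrest is given as TGI.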
# Legend:
# Assay in all cases: growth of human tumour cells (NCI), 48 h
# NCI-H522 lung = system: NCI-H522 lung
# SF-295 CNS = system: SF-295 CNS
# A549 NSCLC = system: A549 NSCLC
# T-47D breast = system: T-47D breast
# MOLT-4 leukemia = system: MOLT-4 leukemia
# OVCAR-5 ovarian = system: OVCAR-5 ovarian
# COLO 205 colon = system: COLO 205 colon
# UACC-257 melanoma = system: UACC-257 melanoma
# HOP-92 NSCLC = system: HOP-92 NSCLC
# SN12C renal = system: SN12C renal
Structure (SMILES),TGI (NCI-H522 lung) [µM],TGI (SF-295 CNS) [µM],TGI (A549 NSCLC) [µM],TGI (T-47D breast) [µM],TGI (MOLT-4 leukemia) [µM],TGI (OVCAR-5 ovarian) [µM],TGI (COLO 205 colon) [µM],TGI (UACC-257 melanoma) [µM],TGI (HOP-92 NSCLC) [µM],TGI (SN12C renal) [µM]
CCC(C(=O)c1ccc(OC)c(OC)c1)N(C(=O)C(F)(F)F)C(C)c1ccccc1 (configuration not stated),> 100,> 100,> 100,> 100,> 100,> 100,> 100,> 100,,
CCN1CCC(O)(C(C(=O)O)c2ccccc2)CC1 (configuration not stated),> 100,> 100,> 100,> 100,,> 100,> 100,> 100,,
CC(C)(C)C1CCC2(CC1)c1[nH]c3ccccc3c1C1(CCC(C(C)(C)C)CC1)c1[nH]c3ccccc3c12 (configuration not stated),> 100,> 100,> 100,,> 100,> 100,> 100,> 100,> 100,> 100
Nc1c(C(=O)c2ccc(Cl)cc2)[nH]c(NCc2ccccc2)c1C(=S)Nc1ccccc1,3.38,3.32,4.87,65.1,6.49,9.16,26.2,3.26,9.02,17
NC(=O)c1cc2ccccc2o/c1=N/O,> 100,> 100,> 100,> 100,> 100,,> 100,> 100,> 100,> 100
Nc1ccc2[nH]c(-c3cccc(Cl)c3)cc(=O)c2c1,6.87,,> 100,> 100,> 100,> 100,> 100,> 100,9.69,> 100
COc1ccc(Nc2nc3c([nH]2)c(=O)n(C)c(=O)n3C)cc1,,> 10,> 10,> 10,> 10,,> 10,> 10,> 10,> 10
C=C1CC(C)(c2ccc(Nc3nc4ccccc4c4occc34)cc2)OC1=O (configuration not stated),,27.4,23.7,6.85,,30.6,16.2,0.164,12.6,4.91
O=[N+]([O-])c1ccc(-c2ccc(-c3csc(Nc4ccccn4)n3)o2)cc1,> 100,> 100,,,> 100,> 100,> 100,> 100,> 100,> 100
CC1(C)OCC2OC3([C@H]4OC(C)(C)O[C@@H]4CO)OC(C)(C)OC3C2O1 (some centres not stated),,> 100,> 100,> 100,> 100,> 100,> 100,> 100,> 100,> 100
CCOC(=O)/C(C#N)=N\Nc1ccc(-n2c(C)nc3ccccc3c2=O)cc1,,> 100,> 100,> 100,> 100,> 100,> 100,> 100,> 100,> 100
O=C(N/N=C/c1cc(Br)cc(Br)c1[O-])c1ccccc1O.O=C(N/N=C/c1cc(Br)cc(Br)c1[O-])c1ccccc1O.[Fe+2],11.4,15.8,29.3,,19.8,15.8,35.8,,6.89,
Cc1cn([C@@H]2C[C@H]2CO)c(=O)[nH]c1=O,> 100,,> 100,> 100,> 100,> 100,> 100,> 100,> 100,> 100
COc1c(Br)cc(CC(N)=O)c(O)c1Br,> 100,> 100,> 100,,> 100,> 100,> 100,> 100,> 100,> 100
O=C(Cc1ccc([N+](=O)[O-])cc1)OCC#CCOC(=O)Cc1ccc([N+](=O)[O-])cc1,> 10,> 10,> 10,> 10,> 10,> 10,,> 10,> 10,> 10
Cn1c2ccccc2n2c(=O)c3cc([N+](=O)[O-])ccc3c(C#N)c12,> 100,> 100,> 100,> 100,> 100,> 100,> 100,> 100,,
C=CCOCCCCC(C(C)=O)C(=O)OC (configuration not stated),> 100,> 100,> 100,,> 100,> 100,> 100,> 100,> 100,> 100
COc1ccc2cc(NC(=O)N/N=C\c3ccc(Cl)cc3)ccc2c1,> 100,> 100,> 100,,> 100,> 100,> 100,> 100,> 100,> 100
O=C1C=C(c2ccccc2)O/C1=C/C(=O)c1ccc(Cl)cc1,27.7,,,,> 100,43.3,30.1,35.6,44.9,29.9
O=C(Cc1ccccc1)NN1C(=O)/C(=C\c2ccc([N+](=O)[O-])cc2)SC1=Nc1ccccc1,,> 100,> 100,> 100,> 100,> 100,> 100,> 100,> 100,> 100
COC(=O)C1CC2(c3ccccc3)C(=O)c3ccccc3N2O1 (configuration not stated),28.8,> 100,> 100,,75.8,> 100,> 100,> 100,> 100,> 100
CC1(C(=O)O)CCCC1C(=O)O (configuration not stated),> 100,> 100,> 100,> 100,> 100,> 100,,> 100,> 100,> 100
O=[N+]([O-])c1ccc(NC(=S)N=Nc2c(O)[nH]c3ccc(Br)cc23)cc1,27.5,22,,37.8,> 100,28.3,56.5,29.8,22.7,23.8
